{"source": "patent US8722580B2", "about": "“Agent for inhibiting cytokinin signaling” (Sumitomo Chemical Company, Limited, priority 2006, dated 2014)", "key": {"Arabidopsis thaliana": {"system": "Arabidopsis thaliana", "test": "Root growth-promoting activity test (Example 9)", "type": "in vivo", "conditions": "test final concentration 5 ppm (concentration with highest root growth rate); main root length vs control section, 22° C., 10 days", "outline": "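Arabidopsis seeds (10–20 per tube) were grown in Enshi standard medium containing the compound from DMSO at 0.001–10 ppm final, at 22° C in light for 10 days. Main root length was averaged over eight repeats and expressed as % of the control.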"}, "rice [1]": {"system": "rice", "test": "Rice stand establishment-promoting activity by seed treatment, direct seeding on flooded field (Example 20)", "type": "in vivo, Oryza sativa japonica Nipponbare", "conditions": "for Stand establishment rate (%) on day 23 after sowing: Blank slurry 76.7", "experimental": "Seeds of rice (Oryza sativa japonica Nipponbare) were treated with the chemical substance Ic3-1 (which inhibits intracellular signaling from a plant-derived cytokinin receptor of a cell) selected in Example 7, and were grown under direct seeding conditions. Then, a stand establishment rate was examined, and thus a rice stand establishment-promoting activity of the chemical substance was evaluated.\nFirst, a Blank slurry solution containing 5% (v/v) Color Coat Red (manufactured by BECKER UNDERWOOD), 5% (v/v) CF-Clear (manufactured by BECKER UNDERWOOD) and 0.42% (v/v) Maxim-XL (manufactured by Syngenta) was prepared. In 1.3 ml of the Blank slurry solution, 6.25 mg, 12.5 mg, 25 mg or 50 mg of the chemical substance Ic3-3 was dissolved. Seeds were treated with the solution in an amount of 1.3 ml per 50 g of seeds (each corresponding to 0.125 mg, 0.25 mg, 0.5 mg and 1 mg/g seed) using a Hege11 seed treating device (manufactured by Hans-Ulrich Hege).\nThen, a concrete pot (50 cm×50 cm) placed outdoors was flooded at a flooding depth of 5 cm, and 50 seeds per pot were sown. On day 23 after sowing, the number of seedlings whose leaf apex appeared on the water surface was examined. […] [Stand establishment rate (%)]=[Number of seedlings whose leaf apex appears on the water surface]/[Number of sown seeds]×100"}, "rice [2]": {"system": "rice", "test": "Root growth-promoting activity using rice, soil drenching (Example 14)", "type": "in vivo, Oriza sativa japonica Nipponbare", "conditions": "soil drenched with 10 ppm solution, 500 μl per well", "experimental": "With respect to the chemical substance Ic3-3, a root growth promoting activity was measured using rice (Oriza sativa japonica Nipponbare).\nFirst, an acetone solution containing a predetermined concentration of the chemical substance was prepared and then 100-fold diluted with distilled water to 10 ppm (containing 1% acetone) to obtain a chemical substance solution. Seeds were immersed in water for 2 days to stimulate germination. The seeds were sowed in a 288-well plug tray (3 seeds per well), and then soil was drenched with the above chemical substance solution in an amount of 500 μl per well. After covering with soil, the plug tray was put in a plastic bag and then placed in an air-conditioned room (dark place at 30° C.) for 3 days. After removing the plastic bag from the plug tray, the plug tray was placed under light conditions of light/dark=16 h/8 h for 4 days while the bottom was irrigated at all times. Thus, rice seeds were cultivated to obtain grown rice. The resulting rice roots were washed and the total root length was analyzed using a root length measurement image analyzer WinRHIZO (manufactured by Regent Instruments)."}, "[3]": {"system": "transformed cell TM182-p415CYC1", "test": "Control growth test with transformed yeast cell TM182-p415CYC1 (toxicity to yeast)", "type": "cell-based", "conditions": "trans-zeatin 0.6 ppm; chemical substance 2 ppm; 30° C., 24 hours; turbidity OD 600", "outline": "(§1)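 Yeast TM182-CRE1 (DOLU+Glu) or control TM182-p415CYC1 (DOLU+Gal), after 18 h preculture at 30° C and dilution to OD600=0.1, exposed to compound at 2 ppm plus trans-zeatin 0.6 ppm for 24 h at 30° C. OD600 vs DMSO control, blank-corrected; inhibition = 100 − relative growth %.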"}, "cytokinin receptor CRE1": {"molecular_target": "T1, cytokinin receptor CRE1 (Arabidopsis thaliana, UniProt Q9C5U0, S567G/T1018A)", "T1 construct": "expressed in transfected cells; host or cells: Saccharomyces cerevisiae TM182 (sln1Δ) transformed with p415CYC-CRE1", "T1 sequence (Q9C5U0 24-1080 S567G/T1018A)": "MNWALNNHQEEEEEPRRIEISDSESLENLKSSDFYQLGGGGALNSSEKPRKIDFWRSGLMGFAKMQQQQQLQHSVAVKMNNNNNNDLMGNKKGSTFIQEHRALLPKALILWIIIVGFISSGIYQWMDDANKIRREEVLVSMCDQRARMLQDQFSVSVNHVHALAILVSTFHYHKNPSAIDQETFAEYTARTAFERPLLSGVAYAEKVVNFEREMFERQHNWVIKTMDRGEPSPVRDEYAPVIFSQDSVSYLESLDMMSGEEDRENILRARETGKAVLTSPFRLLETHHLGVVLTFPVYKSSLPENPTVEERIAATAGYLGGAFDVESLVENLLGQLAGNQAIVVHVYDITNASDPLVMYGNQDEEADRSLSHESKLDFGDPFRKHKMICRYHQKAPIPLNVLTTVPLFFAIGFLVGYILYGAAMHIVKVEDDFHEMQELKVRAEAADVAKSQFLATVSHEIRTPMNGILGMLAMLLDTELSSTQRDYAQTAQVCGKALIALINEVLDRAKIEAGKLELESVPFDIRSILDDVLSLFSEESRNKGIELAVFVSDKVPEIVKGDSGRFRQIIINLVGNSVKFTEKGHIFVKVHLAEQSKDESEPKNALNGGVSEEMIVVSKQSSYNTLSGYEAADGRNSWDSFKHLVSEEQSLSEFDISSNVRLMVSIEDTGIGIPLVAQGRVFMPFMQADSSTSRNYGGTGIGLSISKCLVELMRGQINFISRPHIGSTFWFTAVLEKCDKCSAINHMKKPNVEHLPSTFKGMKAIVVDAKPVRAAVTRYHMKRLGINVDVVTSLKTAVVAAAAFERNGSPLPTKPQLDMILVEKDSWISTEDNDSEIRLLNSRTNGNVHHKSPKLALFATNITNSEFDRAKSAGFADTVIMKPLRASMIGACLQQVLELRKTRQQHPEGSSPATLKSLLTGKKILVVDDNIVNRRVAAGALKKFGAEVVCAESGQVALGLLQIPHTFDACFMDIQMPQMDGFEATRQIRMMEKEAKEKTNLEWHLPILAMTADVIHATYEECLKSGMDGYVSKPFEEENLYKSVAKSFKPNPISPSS", "test": "Inhibition of intracellular signaling from plant-derived cytokinin receptor, growth of transformed yeast cell TM182-CRE1", "type": "cell-based", "conditions": "trans-zeatin 0.6 ppm, chemical substance 2 ppm", "outline": "as §1"}, "rice [4]": {"system": "rice", "test": "Rice tillering-promoting activity by seed treatment, direct seeding on dry field (Example 21)", "type": "in vivo, Oryza sativa japonica Nipponbare", "conditions": "seed treatment 0.25 mg/g seed; day 30 after sowing", "experimental": "Seeds of rice (Oryza sativa japonica Nipponbare) were treated with the chemical substance Ic3-1 (which inhibits intracellular signaling from a plant-derived cytokinin receptor of a cell) selected in Example 7, and were grown under direct seeding on dry field-conditions. Then, the number of tillers was examined, and thus a tillering-promoting activity of the chemical substance was evaluated.\nFirst, a Blank slurry solution containing 5% (v/v) Color Coat Red (manufactured by BECKER UNDERWOOD), 5% (v/v) CF-Clear (manufactured by BECKER UNDERWOOD) and 0.42% (v/v) Maxim-XL (manufactured by Syngenta) was prepared. In 1.3 ml of the Blank slurry solution, 12.5 mg of the chemical substance Ic3-3 was dissolved. Seeds were treated with the solution in an amount of 1.3 ml per 50 g of seeds (corresponding to 0.25 mg/g seed) using a Hege11 seed treating device (manufactured by Hans-Ulrich Hege).\nThe, 20 seeds per pot of the treated seeds were sown in a 1/5000a Wagner pot at a depth of 1 cm and then cultured in a greenhouse. On day 10 after sowing, water was charged at a flooding depth of 5 cm and culture was continued. On day 30 after sowing, the number of tillers was examined."}}, "data": [{"smiles": "OCCCNc1nc(-c2ccccc2)c2cc(Cl)ccc2n1", "note": "[Ic3-3]", "values": [{"measurement": "Root growth-promoting activity (root growth rate)", "setting": "Arabidopsis thaliana", "result": 163.4, "unit": "%"}, {"measurement": "Stand establishment rate (%) on day 23 after sowing", "setting": "rice [1]; seed treatment 0.125 mg/g seed", "result": 87.3, "unit": "%"}, {"measurement": "Stand establishment rate (%) on day 23 after sowing", "setting": "rice [1]; seed treatment 0.25 mg/g seed", "result": 82.7, "unit": "%"}, {"measurement": "Stand establishment rate (%) on day 23 after sowing", "setting": "rice [1]; seed treatment 0.5 mg/g seed", "result": 79.3, "unit": "%"}, {"measurement": "Stand establishment rate (%) on day 23 after sowing", "setting": "rice [1]; seed treatment 1 mg/g seed", "result": 84.0, "unit": "%"}, {"measurement": "stand establishment rate compared with the Blank slurry-treated section", "setting": "rice [1]; seed treatment concentration 0.125 to 1 mg/g seed, day 23 after sowing", "result": "a stand establishment rate was increased"}, {"measurement": "root growth compared with the control section (UTC)", "setting": "rice [2]", "result": "root growth was remarkably promoted"}, {"measurement": "total root length (image analyzer WinRHIZO)", "setting": "rice [2]", "result": "an increase of the total root length"}, {"measurement": "Relative growth rate (%) in test section of test substance to control section, Transformed cell TM182-p415CYC1", "setting": "[3]", "result": 108.6, "unit": "%"}, {"measurement": "Relative growth rate (%) in test section of test substance to control section, Transformed cell TM182-CRE1", "setting": "cytokinin receptor CRE1; 30° C., 24 hours, turbidity OD 600", "result": 1.4, "unit": "%"}, {"measurement": "Activity (%) of test substance for inhibiting intracellular signaling from plant-derived cytokinin receptor of cell", "setting": "cytokinin receptor CRE1; = 100 − relative growth rate of TM182-CRE1", "result": 98.6, "unit": "%"}, {"measurement": "number of tillers per stock compared with the Blank slurry-treated section", "setting": "rice [4]", "result": "the number of tillers per stock was increased"}]}]}
